According to publication PMC4770311, “Discovery and Characterization of GSK2801, a Selective Chemical Probe for the Bromodomains BAZ2A and BAZ2B” (Journal of Medicinal Chemistry, 2015):
Where “and” joins values, the source holds several entries; their conditions need not be identical. Identical values can stand only once.

Legend:
[1] = target: T1, BAZ2A (Homo sapiens, UniProt Q9UIF9); test: AlphaScreen assay BAZ2A; assay type: binding; settings: average of three replicates ± SEM
T1 construct: Recombinant BAZ2A and BAZ2B bromodomains were expressed in; made in house; host or cells: E. coli
T1 sequence (Q9UIF9 1793-1897 limits assumed): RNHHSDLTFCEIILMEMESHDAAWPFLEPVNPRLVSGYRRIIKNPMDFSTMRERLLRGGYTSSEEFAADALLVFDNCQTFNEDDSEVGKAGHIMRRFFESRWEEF
Method: (§1) AlphaScreen: AlphaScreen was performed as described previously 10, with minor modifications from the manufacturers protocol (PerkinElmer, USA). Briefly, all reagents were diluted in the recommended buffer (50 mM HEPES, 100 mM NaCl, 0.1% BSA; pH = 7.4) supplemented with 0.05% CHAPS and allowed to equilibrate to room temperature prior to […]
(§2) Plates were sealed and incubated at room temperature for 30 min. 4 μL of streptavidin-coated donor beads (10ug/mL final) and 4 μL of nickel chelate acceptor beads (10 μg/ml final) were then added under low light conditions. Plates were foil sealed to protect from light, incubated at room temperature for 60 min and read on a PHERAstar FS plate reader (BMG Labtech, Germany) using an AlphaScreen 680 excitation/570 emission filter set.
(§3) Fragments were dissolved in ethylene glycol to overcome sensitivity of the bromodomain assay to DMSO and allow compounds to be screened at mM concentrations. IC50 […]
(§4) measurements were taken over a 12 point 1:2 serial dilution of compound. IC50s were calculated in GraphPad Prism 5 (GraphPad Software, USA). […]

[2] = target: T2, BRD9 (Homo sapiens, UniProt Q9H8M2); test: AlphaScreen cross screening BRD9; assay type: binding; settings: average of three replicates ± SEM
T2 construct: ITC experiments using the bromodomain of BRD9
Method: as §1, §2, §3, §4

[3] = target: T3, BRD4(1) (Homo sapiens, UniProt O60885); test: AlphaScreen cross screening BRD4(1); assay type: binding; settings: average of three replicates ± SEM
T3 construct: […]
Method: as §1, §2, §3, §4

[4] = target: T4, TAF1L(2) (Homo sapiens, UniProt Q8IZX4); test: Isothermal titration calorimetry TAF1L(2); assay type: binding; settings: ITC
T4 construct: the second bromodomain in TAF1L(2)
T4 sequence (Q8IZX4 1517-1626 limits assumed): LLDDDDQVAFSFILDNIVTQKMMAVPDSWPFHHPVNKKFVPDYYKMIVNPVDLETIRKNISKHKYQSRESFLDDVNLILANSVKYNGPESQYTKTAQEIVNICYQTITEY
Method: Thermal stability shift assays: The recombinant bromodomains at 2 µM were mixed with 10 µM inhibitors. The assays and data evaluation for melting temperatures were performed using a Real-Time PCR Mx3005p machine (Stratagene) and the protocols previously […]
Isothermal titration calorimetry: All calorimetric titration experiments were carried out on VP-ITC (MicroCal) at 15 °C. The buffer condition used was 20 mM HEPES, pH 7.5, 150 mM NaCl and 0.5 mM TCEP. Titration was performed by injecting the proteins (200 µM) into a […]
Integrated heat of the titrations after corrected for the heat of dilution were analysed using the Origin program. The corrected data were fitted to a single binding site model using a nonlinear least-square minimization algorithm, and the binding parameters including reaction enthalpy changes (ΔH), reaction […] changes (TΔS), equilibrium dissociation constants (KD), stoichiometry (n) were calculated.
AlphaScreen: AlphaScreen was performed as described previously 10, with minor modifications from the manufacturers protocol (PerkinElmer, USA). […]
Plates were sealed and incubated at room temperature for 30 min. […] Plates were foil sealed to protect from light, incubated at room temperature for 60 min and read on a PHERAstar FS plate reader (BMG Labtech, Germany) using an AlphaScreen 680 excitation/570 emission filter set. […]

[5] = target: T2, BRD9; test: Isothermal titration calorimetry BRD9; assay type: binding; settings: ITC
Method: VP-ITC (MicroCal) at 15 °C.
reaction cell containing the inhibitors (15 µM). Integrated heat of the titrations after corrected
modifications from the manufacturers protocol (PerkinElmer, USA). Briefly, all reagents were
final) were then added under low light conditions. Plates were foil sealed to protect from […]

[6] = target: T2, BRD9; test: Thermal stability shift assay BRD9; assay type: binding; settings: inhibitor concentration 10 μM; read-out: temperature shift (ΔTm) BRD9
[7] = target: BAZ2B (Homo sapiens, UniProt Q9UIF8); test: Chemoproteomic competition binding assay, endogenous BAZ2B; settings: up to a concentration of 50 μM; HuT78 extracts
Sequence of BAZ2B (Q9UIF8 whole entry): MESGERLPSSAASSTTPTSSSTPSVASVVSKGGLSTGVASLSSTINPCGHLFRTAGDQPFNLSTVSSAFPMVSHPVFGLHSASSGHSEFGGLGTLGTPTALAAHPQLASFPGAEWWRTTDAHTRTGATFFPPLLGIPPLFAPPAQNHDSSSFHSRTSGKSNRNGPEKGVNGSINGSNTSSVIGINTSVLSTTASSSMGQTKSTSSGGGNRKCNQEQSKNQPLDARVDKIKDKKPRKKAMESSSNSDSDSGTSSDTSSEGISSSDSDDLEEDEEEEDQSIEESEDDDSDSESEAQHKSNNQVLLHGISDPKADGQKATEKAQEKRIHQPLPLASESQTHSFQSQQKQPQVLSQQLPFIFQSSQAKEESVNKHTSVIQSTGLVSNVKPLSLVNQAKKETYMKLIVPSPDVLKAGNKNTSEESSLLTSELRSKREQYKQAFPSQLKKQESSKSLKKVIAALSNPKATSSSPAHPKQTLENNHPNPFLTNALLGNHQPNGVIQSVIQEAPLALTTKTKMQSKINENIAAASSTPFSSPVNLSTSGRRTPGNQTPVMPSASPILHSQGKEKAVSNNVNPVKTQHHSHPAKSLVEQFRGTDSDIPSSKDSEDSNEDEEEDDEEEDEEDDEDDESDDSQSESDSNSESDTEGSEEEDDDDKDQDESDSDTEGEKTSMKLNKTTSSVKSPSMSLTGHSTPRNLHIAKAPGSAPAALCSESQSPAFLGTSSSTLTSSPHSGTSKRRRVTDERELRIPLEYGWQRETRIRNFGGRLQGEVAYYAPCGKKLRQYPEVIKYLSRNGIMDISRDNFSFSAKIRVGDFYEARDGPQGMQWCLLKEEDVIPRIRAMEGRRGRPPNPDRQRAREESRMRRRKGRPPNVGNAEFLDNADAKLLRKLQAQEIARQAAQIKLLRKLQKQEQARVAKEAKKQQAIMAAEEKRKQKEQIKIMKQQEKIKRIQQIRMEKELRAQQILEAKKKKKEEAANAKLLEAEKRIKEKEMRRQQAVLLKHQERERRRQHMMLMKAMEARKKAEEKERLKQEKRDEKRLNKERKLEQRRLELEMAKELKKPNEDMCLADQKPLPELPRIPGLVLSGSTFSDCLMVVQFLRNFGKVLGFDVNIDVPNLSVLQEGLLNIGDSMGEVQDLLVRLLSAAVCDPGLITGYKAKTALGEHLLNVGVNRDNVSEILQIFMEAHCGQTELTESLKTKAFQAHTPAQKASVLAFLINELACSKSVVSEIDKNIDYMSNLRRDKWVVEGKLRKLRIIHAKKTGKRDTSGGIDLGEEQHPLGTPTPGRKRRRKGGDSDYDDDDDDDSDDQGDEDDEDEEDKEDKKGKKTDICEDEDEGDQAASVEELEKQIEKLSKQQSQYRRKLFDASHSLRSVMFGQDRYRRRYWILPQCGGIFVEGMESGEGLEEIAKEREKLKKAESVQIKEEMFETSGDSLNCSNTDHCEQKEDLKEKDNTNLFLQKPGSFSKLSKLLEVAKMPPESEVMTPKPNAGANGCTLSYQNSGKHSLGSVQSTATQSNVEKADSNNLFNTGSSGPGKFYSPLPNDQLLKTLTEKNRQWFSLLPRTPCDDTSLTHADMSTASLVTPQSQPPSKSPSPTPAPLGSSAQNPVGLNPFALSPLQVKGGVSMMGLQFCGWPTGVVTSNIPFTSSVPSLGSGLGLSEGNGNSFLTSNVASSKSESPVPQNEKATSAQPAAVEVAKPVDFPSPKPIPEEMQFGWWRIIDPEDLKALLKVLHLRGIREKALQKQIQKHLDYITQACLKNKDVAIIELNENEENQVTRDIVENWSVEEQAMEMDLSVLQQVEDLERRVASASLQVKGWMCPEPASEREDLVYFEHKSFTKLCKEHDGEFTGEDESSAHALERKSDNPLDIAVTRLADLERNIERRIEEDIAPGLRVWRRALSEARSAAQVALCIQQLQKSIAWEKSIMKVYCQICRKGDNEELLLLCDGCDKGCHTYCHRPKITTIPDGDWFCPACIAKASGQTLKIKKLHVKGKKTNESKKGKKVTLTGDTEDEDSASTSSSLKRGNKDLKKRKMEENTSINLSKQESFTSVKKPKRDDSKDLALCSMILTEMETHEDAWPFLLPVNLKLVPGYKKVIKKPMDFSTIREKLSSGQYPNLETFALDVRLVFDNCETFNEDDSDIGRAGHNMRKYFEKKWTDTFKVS

[8] = target: BAZ2A (Homo sapiens, UniProt Q9UIF9); test: Chemoproteomic competition binding assay, endogenous BAZ2A; settings: up to a concentration of 50 μM; HuT78 extracts
Target sequence in this assay (Q9UIF9 whole entry): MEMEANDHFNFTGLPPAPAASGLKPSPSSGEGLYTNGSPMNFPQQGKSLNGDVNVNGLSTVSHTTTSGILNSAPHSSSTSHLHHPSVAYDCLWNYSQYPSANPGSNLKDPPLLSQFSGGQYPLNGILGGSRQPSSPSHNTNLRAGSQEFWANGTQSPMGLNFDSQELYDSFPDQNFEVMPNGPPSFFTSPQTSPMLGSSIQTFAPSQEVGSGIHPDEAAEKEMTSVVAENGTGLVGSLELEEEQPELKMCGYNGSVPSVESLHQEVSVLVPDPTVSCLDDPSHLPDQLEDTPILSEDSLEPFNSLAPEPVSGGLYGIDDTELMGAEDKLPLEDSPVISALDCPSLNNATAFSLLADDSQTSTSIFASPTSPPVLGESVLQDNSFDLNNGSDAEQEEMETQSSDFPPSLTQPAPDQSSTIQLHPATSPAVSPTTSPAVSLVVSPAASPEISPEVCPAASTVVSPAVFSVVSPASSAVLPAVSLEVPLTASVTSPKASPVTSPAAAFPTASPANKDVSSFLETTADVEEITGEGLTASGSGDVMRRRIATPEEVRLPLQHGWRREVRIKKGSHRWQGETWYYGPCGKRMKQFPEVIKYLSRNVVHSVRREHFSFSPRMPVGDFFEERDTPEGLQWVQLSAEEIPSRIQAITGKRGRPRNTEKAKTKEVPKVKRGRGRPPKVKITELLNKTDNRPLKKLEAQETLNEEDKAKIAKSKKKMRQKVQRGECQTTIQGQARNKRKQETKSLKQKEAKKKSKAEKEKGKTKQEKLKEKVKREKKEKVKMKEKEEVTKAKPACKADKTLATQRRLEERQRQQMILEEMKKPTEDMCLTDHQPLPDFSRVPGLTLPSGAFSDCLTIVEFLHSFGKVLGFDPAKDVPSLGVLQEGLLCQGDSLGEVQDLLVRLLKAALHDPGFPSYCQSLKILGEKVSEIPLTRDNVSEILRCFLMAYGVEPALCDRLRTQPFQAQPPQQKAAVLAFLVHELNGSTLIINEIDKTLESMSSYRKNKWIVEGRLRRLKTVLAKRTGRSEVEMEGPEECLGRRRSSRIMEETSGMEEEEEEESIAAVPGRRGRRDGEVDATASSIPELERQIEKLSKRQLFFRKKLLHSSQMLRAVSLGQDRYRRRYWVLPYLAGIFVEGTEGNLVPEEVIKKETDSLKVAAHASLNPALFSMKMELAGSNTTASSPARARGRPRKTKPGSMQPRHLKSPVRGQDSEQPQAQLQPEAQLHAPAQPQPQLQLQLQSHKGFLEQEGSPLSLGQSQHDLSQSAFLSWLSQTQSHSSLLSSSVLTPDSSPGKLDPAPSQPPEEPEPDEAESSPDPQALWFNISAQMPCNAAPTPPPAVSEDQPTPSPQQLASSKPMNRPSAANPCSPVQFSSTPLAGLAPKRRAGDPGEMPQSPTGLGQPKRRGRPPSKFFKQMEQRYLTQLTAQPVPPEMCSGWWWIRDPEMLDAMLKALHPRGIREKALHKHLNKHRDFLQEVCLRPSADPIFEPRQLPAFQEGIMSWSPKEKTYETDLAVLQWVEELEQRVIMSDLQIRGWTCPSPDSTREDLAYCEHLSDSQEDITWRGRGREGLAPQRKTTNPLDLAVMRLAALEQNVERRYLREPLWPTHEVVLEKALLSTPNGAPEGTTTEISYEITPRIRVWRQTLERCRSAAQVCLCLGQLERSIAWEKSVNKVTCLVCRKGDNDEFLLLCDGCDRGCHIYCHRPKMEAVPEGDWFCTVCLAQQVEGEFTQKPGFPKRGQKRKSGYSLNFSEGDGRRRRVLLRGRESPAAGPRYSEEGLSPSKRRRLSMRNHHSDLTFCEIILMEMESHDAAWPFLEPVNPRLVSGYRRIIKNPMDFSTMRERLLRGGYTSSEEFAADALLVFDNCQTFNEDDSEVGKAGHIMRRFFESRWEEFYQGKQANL

[9] = target: SMARCA2 and 4; test: Chemoproteomic competition binding assay, endogenous SMARCA2 and 4; settings: HuT78 extracts; likely indirect via BRD9 in BAF complex
[10] = test system: panel of biotin-labeled bromodomains; settings: two concentrations, 0.2 and 1.0 μM
Method: measurements were taken over a 12 point 1:2 serial dilution of compound. IC50s were calculated in GraphPad Prism 5 (GraphPad Software, USA).
Biolayer interference assays. BAZ2A and BAZ2B were expressed in frame with a C- […]
of a single biotin using the biotin ligase (BirA) which has been co-expressed in E. coli using the co-expression vector BL21(DE3)-R3-pRARE2-BirA. Cells were grown in the presence of 0.1 mM biotin and were lysed and purified using a similar procedure as described for the non-biotin labelled protein.
The biotin labelled BAZ2B and BAZ2A was immobilized on SuperStreptavidin BLI sensors.
BioLayer Interferometry (BLI) experiments were performed on a 16-channel ForteBio Octet […]
buffer. The reference sensors without attached bromodomain were used to subtract background binding to SuperStreptavidin sensors. Data were processed and analysed using ForteBio Analysis software.
Determination of PK profiles for GSK2801 after IP (intraperitoneal) and PO (oral) administrations to male CD-1 mice: These PK studies were performed by the DMPK […]
The IP and PO dosing solutions were prepared in 0.5%
Test system: CD-1 mice, 28-32g, male, N=18, purchased from SLAC Laboratory Animal Co.
LTD. The animals were given free access to food and water. A dose of 30 mg/kg (10 mL/kg) was used via intraperitoneal injection (N=9) and for oral dosing 30 mg/kg (10 mL/kg) via gavage (N=9). […]

[11] = target: T5, BRD9 (Homo sapiens, UniProt Q9H8M2); test: Chemoproteomic competition binding assay, endogenous BRD9; settings: HuT78 extracts; competition with affinity matrix
T5 construct: endogenous in cells; host or cells: HuT78
T5 sequence (Q9H8M2 1-597): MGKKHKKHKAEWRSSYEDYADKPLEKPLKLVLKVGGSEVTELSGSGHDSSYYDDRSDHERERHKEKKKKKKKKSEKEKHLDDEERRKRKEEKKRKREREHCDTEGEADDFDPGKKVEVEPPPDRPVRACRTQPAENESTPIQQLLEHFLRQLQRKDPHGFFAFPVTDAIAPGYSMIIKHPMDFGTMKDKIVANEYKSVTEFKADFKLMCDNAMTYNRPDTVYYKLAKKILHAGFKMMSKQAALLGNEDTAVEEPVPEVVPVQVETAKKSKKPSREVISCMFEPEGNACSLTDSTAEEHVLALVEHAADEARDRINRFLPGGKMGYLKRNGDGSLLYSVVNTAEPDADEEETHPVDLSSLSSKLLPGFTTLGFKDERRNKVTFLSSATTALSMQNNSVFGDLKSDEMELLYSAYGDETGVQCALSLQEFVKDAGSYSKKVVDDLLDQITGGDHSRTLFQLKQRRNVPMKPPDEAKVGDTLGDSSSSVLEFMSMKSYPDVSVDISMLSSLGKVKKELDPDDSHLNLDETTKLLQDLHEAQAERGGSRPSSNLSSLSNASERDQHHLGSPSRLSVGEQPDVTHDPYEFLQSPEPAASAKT

COc1cccc(-c2cc(C(C)=O)n3ccccc23)c1 [Compound 3, 1-(1-(3-Methoxyphenyl)indolizin-3-yl)ethanone]
IC50 [1]: > 30000 nM

CC(=O)c1cc(-c2cccs2)c2ccccn12 [Compound 4, 1-(1-(Thiophen-2-yl)indolizin-3-yl)ethanone]
IC50 [1]: 8600 ± 10 nM

CC(=O)c1cc(-c2ccccc2O)c2ccccn12 [Compound 5, 1-(1-(2-hydroxyphenyl)indolizin-3-yl)ethanone]
IC50 [1]: 7200 ± 60 nM

CC(=O)c1cc(-c2cccc(O)c2)c2ccccn12 [Compound 6, 1-(1-(3-hydroxyphenyl)indolizin-3-yl)ethanone]
IC50 [1]: 3300 ± 50 nM

CC(=O)c1cc(-c2ccccc2CO)c2ccccn12 [Compound 7, 1-(1-(2-(hydroxymethyl)phenyl)indolizin-3-yl)ethanone]
IC50 [2]: 23.7 ± 0.16 µM
IC50 [3]: 38.9 ± 13.3 µM
IC50 [1]: 1800 ± 50 nM

CC(=O)c1cc(-c2cccc(C(N)=O)c2)c2ccccn12 [Compound 8, 3-(3-acetylindolizin-1-yl)benzamide]
IC50 [1]: 1800 ± 20 nM

COc1ccc(-c2cc(C(C)=O)n3ccccc23)c(CO)c1 [Compound 9, 1-(1-(2-(hydroxymethyl)-4-methoxyphenyl)indolizin-3-yl)ethanone]
IC50 [1]: 1400 ± 10 nM

CC(=O)c1cc(-c2ccc(CO)cc2)c2ccccn12 [Compound 10, 1-(1-(4-(hydroxymethyl)phenyl)indolizin-3-yl)ethanone]
IC50 [1]: 1200 ± 70 nM

CC(=O)c1cc(-c2ccc(N(C)C)cc2)c2ccccn12 [Compound 11, 1-(1-(4-(dimethylamino)phenyl)indolizin-3-yl)ethanone]
IC50 [1]: 1100 ± 70 nM

CC(=O)c1cc(-c2ccccc2S(C)(=O)=O)c2ccccn12 [Compound 12, 1-(1-(2-(methylsulfonyl)phenyl)indolizin-3-yl)ethanone]
IC50 [2]: 17.9 ± 3.85 µM
IC50 [3]: > 50 µM
IC50 [1]: 720 ± 70 nM

CC(=O)c1cc(-c2ccccc2CO)c2cc(C)ccn12 [Compound 13, 1-(1-(2-(hydroxymethyl)phenyl)-7-methylindolizin-3-yl)ethanone]
IC50 [1]: 1000 ± 90 nM

COc1ccn2c(C(C)=O)cc(-c3ccccc3CO)c2c1 [Compound 14, 1-(1-(2-(hydroxymethyl)phenyl)-7-methoxyindolizin-3-yl)ethanone]
IC50 [1]: 1200 ± 10 nM

CC(=O)c1cc(-c2ccccc2CO)c2cc(N3CCOCC3)ccn12 [Compound 15, 1-(1-(2-(hydroxymethyl)phenyl)-7-morpholinoindolizin-3-yl)ethanone]
IC50 [1]: 1700 ± 130 nM

CC(=O)c1cc(-c2ccccc2CO)c2cc(C(N)=O)ccn12 [Compound 16, 3-acetyl-1-(2-(hydroxymethyl)phenyl)indolizine-7-carboxamide]
IC50 [1]: 4100 ± 90 nM

CC(=O)c1cc(-c2ccccc2CO)c2cc(Oc3ccccc3)ccn12 [Compound 17, 1-(1-(2-(hydroxymethyl)phenyl)-7-phenoxyindolizin-3-yl)ethanone]
IC50 [1]: 4100 ± 60 nM

CC(=O)c1cc(-c2ccccc2S(C)(=O)=O)c2cc(CNC(=O)OC(C)(C)C)ccn12 [Compound 18, tert-butyl ((3-acetyl-1-(2-(methylsulfonyl)phenyl)indolizin-7-yl)methyl)carbamate]
IC50 [2]: 1.4 ± 0.04 µM
IC50 [3]: > 50 µM
IC50 [1]: 160 ± 50 nM

CCCOc1ccn2c(C(C)=O)cc(-c3ccccc3S(C)(=O)=O)c2c1 [Compound 19, 1-(1-(2-(methylsulfonyl)phenyl)-7-propoxyindolizin-3-yl)ethanone]
binding enthalpy change ΔH TAF1L(2) [4]: −8.6 (±0.02) kcal/mol
Kd ([4]; listed as GSK2801): 3.2 µM and 3.19 µM
IC50 [2]: > 50 µM
binding enthalpy change ΔH BRD9 [5]: −9.8 (±0.01) kcal/mol
Kd ([5]; listed as GSK2801): 1200 nM
IC50 [3]: > 50 µM
ΔTm at 10 µM [6]: 2.3 °C

CC(=O)c1cc(-c2ccccc2S(C)(=O)=O)c2cc(Oc3ccccc3)ccn12 [Compound 20, 1-(1-(2-(methylsulfonyl)phenyl)-7-phenoxyindolizin-3-yl)ethanone]
IC50 [2]: 19.9 ± 1.84 µM
IC50 [3]: > 50 µM
IC50 [1]: 550 nM

COc1ccn2c(C(C)=O)cc(-c3ccccc3S(C)(=O)=O)c2c1 [Compound 21, 1-(7-methoxy-1-(2-(methylsulfonyl)phenyl)indolizin-3-yl)ethanone]
IC50 [2]: > 50 µM
IC50 [3]: > 50 µM
IC50 [1]: 580 ± 50 nM

CC(=O)c1cc(-c2ccccc2S(C)(=O)=O)c2cc(C)ccn12 [Compound 22, 1-(7-methyl-1-(2-(methylsulfonyl)phenyl)indolizin-3-yl)ethanone]
IC50 [1]: 890 nM

CCCOc1ccn2c(C(C)=O)cc(-c3cccc(OC)c3)c2c1 [Compound 23, 1-(1-(3-Methoxyphenyl)-7-propoxyindolizin-3-yl)ethanone]
Kd [5]: 1040 nM
binding enthalpy change ΔH BRD9 [5]: −8.98 (± 0.152) kcal/mol
binding to endogenous BAZ2B [7]: did not show any binding
binding to endogenous BAZ2A [8]: did not show any binding
pKd SMARCA2 and 4 [9]: 4.8
selectivity in BLI bromodomain panel [10]: inactive against BAZ2A/B and all other bromodomains except BRD9
pKd BRD9 [11]: 4.5
